Experimental data from the NIST ThermoML archive (doi:10.1016/j.jct.2015.07.042).
± gives the expanded uncertainty stated by the source.

Assay: activity coefficient (dimensionless); of the first substance listed, at infinite dilution; xn = mol fraction of the nth substance listed
Conditions: 101 kPa, Liquid, Chromatography, x1 = 0

Structure (SMILES)	activity coefficient (398.15 K)	activity coefficient (408.15 K)	activity coefficient (418.15 K)	activity coefficient (428.15 K)	activity coefficient (358.15 K)	activity coefficient (368.15 K)	activity coefficient (378.15 K)	activity coefficient (388.15 K)
O [water] + CCCCn1cc[n+](C)c1.COP(=O)([O-])OC	0.073 ± 0.03	0.081 ± 0.03	0.092 ± 0.03	0.101 ± 0.03	–	–	–	–
Cc1ccccc1 [toluene] + CCCCn1cc[n+](C)c1.CS(=O)(=O)[O-]	–	–	–	–	5.32 ± 0.36	5.45 ± 0.37	5.68 ± 0.39	5.84 ± 0.4
C=COC(C)=O [vinyl acetate] + CCCCn1cc[n+](C)c1.[Cl-]	–	–	–	–	5.66 ± 0.39	5.74 ± 0.39	5.86 ± 0.4	6.05 ± 0.41
CCc1ccccc1 [ethylbenzene] + CCCCn1cc[n+](C)c1.CS(=O)(=O)[O-]	–	–	–	–	8.45 ± 0.58	8.61 ± 0.59	8.76 ± 0.6	9.05 ± 0.62
C#CCCC [1-pentyne] + CCCCn1cc[n+](C)c1.[Cl-]	–	–	–	–	4.89 ± 0.33	5.25 ± 0.36	5.51 ± 0.38	5.78 ± 0.39
CCc1ccccc1 [ethylbenzene] + CCCCn1cc[n+](C)c1.[Cl-]	–	–	–	–	13.2 ± 0.9	13.2 ± 0.9	13.5 ± 0.92	13.7 ± 0.94
CC(C)=O [acetone] + CCCCn1cc[n+](C)c1.COP(=O)([O-])OC	–	–	–	–	1.92 ± 0.13	1.96 ± 0.13	2.02 ± 0.14	2.1 ± 0.14
c1ccncc1 [pyridine] + CCCCn1cc[n+](C)c1.CS(=O)(=O)[O-]	–	–	–	–	10.9 ± 0.75	10.8 ± 0.74	10.6 ± 0.72	10.5 ± 0.71
CCCC=O [butanal] + CCCCn1cc[n+](C)c1.CS(=O)(=O)[O-]	–	–	–	–	3.33 ± 0.23	3.44 ± 0.23	3.58 ± 0.24	3.74 ± 0.25
CCOCC [diethyl ether] + CCCCn1cc[n+](C)c1.COP(=O)([O-])OC	–	–	–	–	6.21 ± 0.42	6.3 ± 0.43	6.39 ± 0.44	6.48 ± 0.44
c1ccncc1 [pyridine] + CCCCn1cc[n+](C)c1.[Cl-]	–	–	–	–	1.47 ± 0.1	1.55 ± 0.1	1.64 ± 0.11	1.78 ± 0.12
CCCC(=O)OC [methyl butanoate] + CCCCn1cc[n+](C)c1.CS(=O)(=O)[O-]	–	–	–	–	6.79 ± 0.46	7.21 ± 0.49	7.39 ± 0.5	7.84 ± 0.53
CCCCCCCCC [nonane] + CCCCn1cc[n+](C)c1.[Cl-]	–	–	–	–	476 ± 33	433 ± 30	394 ± 27	376 ± 26
C1CCCCCCC1 [cyclooctane] + CCCCn1cc[n+](C)c1.COP(=O)([O-])OC	–	–	–	–	18.8 ± 1.3	18.2 ± 1.2	17.7 ± 1.2	17.3 ± 1.2
COC(C)=O [methyl ethanoate] + CCCCn1cc[n+](C)c1.COP(=O)([O-])OC	–	–	–	–	2.58 ± 0.18	2.65 ± 0.18	2.73 ± 0.19	2.85 ± 0.19
C=CCCCCCC [oct-1-ene] + CCCCn1cc[n+](C)c1.[Cl-]	–	–	–	–	142 ± 9.7	134 ± 9.2	126 ± 8.6	122 ± 8.4
CCOC(C)=O [ethyl acetate] + CCCCn1cc[n+](C)c1.[Cl-]	–	–	–	–	9.02 ± 0.62	9.06 ± 0.62	9.1 ± 0.62	9.16 ± 0.62
C=CCCCCCC [oct-1-ene] + CCCCn1cc[n+](C)c1.CS(=O)(=O)[O-]	–	–	–	–	88.1 ± 6	86.8 ± 6	86.5 ± 5.9	85.6 ± 5.9
CCCCO [butan-1-ol] + CCCCn1cc[n+](C)c1.[Cl-]	0.558 ± 0.04	0.594 ± 0.042	0.635 ± 0.044	0.68 ± 0.046	–	–	–	–
CCc1ccccc1 [ethylbenzene] + CCCCn1cc[n+](C)c1.COP(=O)([O-])OC	–	–	–	–	5.73 ± 0.39	5.87 ± 0.4	5.97 ± 0.41	6.26 ± 0.43
CCOC(C)(C)C [2-ethoxy-2-methylpropane] + CCCCn1cc[n+](C)c1.COP(=O)([O-])OC	–	–	–	–	12.8 ± 0.87	12.8 ± 0.87	12.9 ± 0.88	12.9 ± 0.88
Cc1ccc(C)cc1 [1,4-dimethylbenzene] + CCCCn1cc[n+](C)c1.COP(=O)([O-])OC	–	–	–	–	6.31 ± 0.43	6.44 ± 0.44	6.59 ± 0.45	6.86 ± 0.47
CCCCCCCC [octane] + CCCCn1cc[n+](C)c1.CS(=O)(=O)[O-]	–	–	–	–	171 ± 12	165 ± 11	160 ± 11	155 ± 11
C=CCCCCCC [oct-1-ene] + CCCCn1cc[n+](C)c1.COP(=O)([O-])OC	–	–	–	–	27.5 ± 1.9	26.9 ± 1.8	26.5 ± 1.8	26.2 ± 1.8

Structure (SMILES)	activity coefficient (398.15 K)	activity coefficient (408.15 K)	activity coefficient (418.15 K)	activity coefficient (428.15 K)	activity coefficient (358.15 K)	activity coefficient (368.15 K)	activity coefficient (378.15 K)	activity coefficient (388.15 K)
C1CCCCC1 [cyclohexane] + CCCCn1cc[n+](C)c1.CS(=O)(=O)[O-]	–	–	–	–	35.2 ± 2.4	34.5 ± 2.4	33.9 ± 2.3	33.8 ± 2.3
CCC(=O)CC [pentan-3-one] + CCCCn1cc[n+](C)c1.COP(=O)([O-])OC	–	–	–	–	3.73 ± 0.25	3.81 ± 0.26	3.89 ± 0.26	4.04 ± 0.28
CCC(C)O (stereo not drawn) [butan-2-ol] + CCCCn1cc[n+](C)c1.CS(=O)(=O)[O-]	1.11 ± 0.071	1.18 ± 0.075	1.25 ± 0.081	1.33 ± 0.087	–	–	–	–
CC(C)CO [2-methyl-1-propanol] + CCCCn1cc[n+](C)c1.COP(=O)([O-])OC	0.23 ± 0.029	0.254 ± 0.03	0.281 ± 0.03	0.313 ± 0.031	–	–	–	–
COC(C)(C)C [2-methoxy-2-methylpropane] + CCCCn1cc[n+](C)c1.[Cl-]	–	–	–	–	24.6 ± 1.7	23.8 ± 1.6	23 ± 1.6	22.9 ± 1.6
CCC[N+](=O)[O-] [1-nitropropane] + CCCCn1cc[n+](C)c1.CS(=O)(=O)[O-]	–	–	–	–	1.89 ± 0.13	1.96 ± 0.13	2.02 ± 0.14	2.13 ± 0.14
C=CCCCCCCCC [1-decene] + CCCCn1cc[n+](C)c1.[Cl-]	–	–	–	–	323 ± 22	306 ± 21	285 ± 20	277 ± 19
CCCCCCCCCC [decane] + CCCCn1cc[n+](C)c1.CS(=O)(=O)[O-]	–	–	–	–	371 ± 26	352 ± 24	340 ± 23	324 ± 22
C=Cc1ccccc1 [styrene] + CCCCn1cc[n+](C)c1.[Cl-]	–	–	–	–	4.96 ± 0.34	5.18 ± 0.35	5.42 ± 0.37	5.73 ± 0.39
C#CCCCCCC [1-octyne] + CCCCn1cc[n+](C)c1.CS(=O)(=O)[O-]	–	–	–	–	17.8 ± 1.2	18.6 ± 1.3	19.5 ± 1.3	20.4 ± 1.4
C#CCCCC [1-hexyne] + CCCCn1cc[n+](C)c1.CS(=O)(=O)[O-]	–	–	–	–	8.02 ± 0.55	8.52 ± 0.58	9.06 ± 0.62	9.64 ± 0.66
CCC(=O)CC [pentan-3-one] + CCCCn1cc[n+](C)c1.[Cl-]	–	–	–	–	7.6 ± 0.52	7.72 ± 0.53	7.78 ± 0.53	7.97 ± 0.54
CC#N [acetonitrile] + CCCCn1cc[n+](C)c1.CS(=O)(=O)[O-]	–	–	–	–	0.99 ± 0.06	1.03 ± 0.06	1.08 ± 0.07	1.12 ± 0.07
C#CCCCCC [1-heptyne] + CCCCn1cc[n+](C)c1.CS(=O)(=O)[O-]	–	–	–	–	12 ± 0.82	12.6 ± 0.86	13.3 ± 0.91	14.1 ± 0.96
CCOC(C)(C)C [2-ethoxy-2-methylpropane] + CCCCn1cc[n+](C)c1.CS(=O)(=O)[O-]	–	–	–	–	35.3 ± 2.4	35.6 ± 2.4	36.1 ± 2.5	36.6 ± 2.5
Cc1ccc(C)cc1 [1,4-dimethylbenzene] + CCCCn1cc[n+](C)c1.[Cl-]	–	–	–	–	13.6 ± 0.93	13.7 ± 0.94	14 ± 0.96	14.3 ± 0.98
C#CCCC [1-pentyne] + CCCCn1cc[n+](C)c1.CS(=O)(=O)[O-]	–	–	–	–	5.46 ± 0.37	5.84 ± 0.4	6.26 ± 0.43	6.67 ± 0.45
O [water] + CCCCn1cc[n+](C)c1.CS(=O)(=O)[O-]	0.2 ± 0.029	0.214 ± 0.029	0.228 ± 0.029	0.239 ± 0.029	–	–	–	–
C=C(C)c1ccccc1 [(1-methylethenyl)benzene] + CCCCn1cc[n+](C)c1.CS(=O)(=O)[O-]	–	–	–	–	6.43 ± 0.44	6.71 ± 0.46	6.96 ± 0.47	7.41 ± 0.51
C1CCCCCC1 [cycloheptane] + CCCCn1cc[n+](C)c1.[Cl-]	–	–	–	–	62.7 ± 4.3	58.8 ± 4	55.4 ± 3.8	53.6 ± 3.7
CCCCCCCCC [nonane] + CCCCn1cc[n+](C)c1.CS(=O)(=O)[O-]	–	–	–	–	251 ± 17	239 ± 16	229 ± 16	223 ± 15
CCC(C)O (stereo not drawn) [butan-2-ol] + CCCCn1cc[n+](C)c1.COP(=O)([O-])OC	0.327 ± 0.032	0.365 ± 0.033	0.406 ± 0.034	0.451 ± 0.036	–	–	–	–
C1CCOC1 [tetrahydrofuran] + CCCCn1cc[n+](C)c1.CS(=O)(=O)[O-]	–	–	–	–	3.41 ± 0.23	3.48 ± 0.24	3.59 ± 0.24	3.72 ± 0.25
